From ChEMBL document CHEMBL6087476, “Positive Charge-Concentrated Dimeric Lipopeptides with Enhanced Protease Resistance: A Potential Solution for Systemic Bacterial Infections” (J Med Chem, 2025)
In brackets after ≈: the same amount, converted by molar mass. Activity calls are given as the source filed them. The calls are words filed in the database; no cut-off is given here.

Assays:
Escherichia coli [1] = experiment: Antimicrobial activity against Escherichia coli ATCC 25922 assessed as increase in absorbance incubated for 20 to 22 hrs; format: functional; conditions: time 20-22 hrs
[2] = Toxicity in ICR mouse assessed as liver weight change at 5 to 20 mg/kg, ip measured after 3 days; format: organism-based; conditions: in vivo, 72 h, dose 5-20 mg/kg, time 3 day
Salmonella typhimurium = experiment: Antimicrobial activity against Salmonella typhimurium 7731 assessed as increase in absorbance incubated for 20 to 22 hrs; format: functional, Salmonella enterica subsp. enterica serovar Typhimurium; conditions: Salmonella enterica, time 20-22 hrs
Escherichia coli [3] = experiment: Inhibition of respiratory chain dehydrogenase (RCD) activity in Escherichia coli ATCC 25922 at 4 uM incubated for 90 mins by TTC assay
Staphylococcus aureus [4] = experiment: Antimicrobial activity against Staphylococcus aureus 25923 assessed as increase in absorbance incubated for 20 to 22 hrs; format: functional; conditions: time 20-22 hrs
Escherichia coli [5] = experiment: Antimicrobial activity against Escherichia coli ATCC 25922 assessed as increase in absorbance at MIC concentration in presence of < 8 ug/ml Lipopolysaccharide incubated for 8 hrs; format: functional, organism-based; conditions: dose < 8.0 µg/ml
Escherichia coli [6] = experiment: Induction of membrane damage in Escherichia coli ATCC 25922 assessed as ruptured membrane by analysing red fluorescence at 8 uM measured after 1 hr incubation by PI - live and dead staining based fluorescence microscopy; format: functional, organism-based
Escherichia coli [7] = experiment: Antimicrobial activity against Escherichia coli ATCC 25922 assessed as increase in absorbance at 8 mg/ml incubated for 8 hrs in presence of trypsin; format: functional, organism-based
Escherichia coli [8] = experiment: Induction of membrane damage in Escherichia coli ATCC 25922 assessed as damaged membrane surface (irregular vesicles protrusions) at 8 uM measured after 1 hr incubation by SEM analysis; format: functional, organism-based
Escherichia coli [9] = experiment: Bactericidal activity against Escherichia coli ATCC 25922 assessed as reduction in bacterial viability at 4 uM measured within 2 hrs; format: functional, organism-based
Cell membrane [10] = experiment: Induction of depolarization of cytoplasmic membrane (CM) in Escherichia coli ATCC 25922 assessed as fluorescence changes at 1/2 to 3 times of MIC measured after 1000 to 3000 seconds by fluorescent probe DiSC3-5 assay; format: subcellular; conditions: time 1000-3000 sec
Escherichia coli [11] = experiment: Induction of ROS accumulation in Escherichia coli ATCC 25922 at 4 uM incubated for 30 mins by DCFH-DA assay; format: functional, organism-based
[12] = Stability of compound assessed as pepsin (unknown origin)-mediated compound structural integrity change at 8 mg/ml incubated for 1 to 8 hrs by RP-HPLC analysis; format: ADME; conditions: human, time 1-8 hrs
Mus musculus [13] = experiment: Anti-inflammatory activity against Escherichia coli ATCC 25922-induced peritonitis ICR mouse model assessed as decrease in IL-1 beta level in serum spleen at 10 mg/kg, ip measured after 12 hrs; format: functional, organism-based
Pseudomonas aeruginosa [14] = experiment: Antimicrobial activity against Pseudomonas aeruginosa 27853 assessed as increase in absorbance incubated for 20 to 22 hrs; format: functional; conditions: time 20-22 hrs
HEK-293T = experiment: Cytotoxicity against human HEK293T cells assessed as cell death measured after 18 to 24 hrs by MTT assay; format: functional; conditions: time 18-24 hrs
Cell membrane [15] = experiment: Induction of depolarization of cytoplasmic membrane (CM) in Escherichia coli ATCC 25922 assessed as fluorescence changes at 1/2 to 3 times of MIC by fluorescent probe DiSC3-5 assay; format: subcellular; conditions: time 1000-3000 sec
Chymotrypsin = Chymotrypsin (Homo sapiens, UniProt Q99895+P17538+P40313+Q6GPI1); experiment: Stability of compound assessed as chymotrypsin (unknown origin)-mediated compound structural integrity change at 8 mg/ml incubated for 1 to 8 hrs by 16.5% tricine-SDS-PAGE analysis; format: ADME, protein assay; conditions: time 1-8 hrs
Pseudomonas aeruginosa [16] = experiment: Antimicrobial activity against Pseudomonas aeruginosa 25349 assessed as increase in absorbance incubated for 20 to 22 hrs; format: functional; conditions: time 20-22 hrs
[17] = Toxicity in ICR mouse assessed as alanine aminotransferase (ALT) level in serum at 5 to 20 mg/kg, ip measured after 3 days; format: organism-based; conditions: in vivo, 72 h, dose 5-20 mg/kg, time 3 day
Escherichia coli [18] = experiment: Antimicrobial activity against Escherichia coli ATCC 25922 assessed as increase in absorbance at MIC concentration in presence of […] ug/ml Lipopolysaccharide incubated for 8 hrs; format: functional, organism-based; conditions: dose 64.0 µg/ml
Staphylococcus aureus [19] = experiment: Antimicrobial activity against Staphylococcus aureus 29213 assessed as increase in absorbance incubated for 20 to 22 hrs; format: functional; conditions: time 20-22 hrs
[20] = Toxicity in ICR mouse assessed as reduced mobility at 20 mg/kg, ip measured within 1 hr; format: organism-based; conditions: in vivo
Escherichia coli [21] = experiment: Antibacterial activity against Escherichia coli ATCC 25922 injected intraperitoneally in ICR mouse assessed as reduction in symptoms by measuring atrophied red medulla in spleen at 10 mg/kg, ip measured after 12 hrs by H and E staining based assay; format: functional, organism-based
RAW264.7 = experiment: Cytotoxicity against mouse RAW264.7 cells assessed as cell death measured after 18 to 24 hrs by MTT assay; format: functional; conditions: time 18-24 hrs
Cell membrane [22] = experiment: Induction of cytoplasmic membrane (CM) permeabilization in Escherichia coli ATCC 25922 assessed as utilization of ONPG at 1/2 MIC; format: subcellular
Lipopolysaccharide (LPS) = experiment: Binding affinity to Escherichia coli O111:B4 Lipopolysaccharide by fluorescent probe BODIPYTR-cadaverine (BC) assay; conditions: dose 1-16 µM
[23] = Toxicity in ICR mouse assessed as alkaline phosphatase (ALP) level in serum at 5 to 20 mg/kg, ip measured after 3 days; format: organism-based; conditions: in vivo, 72 h, dose 5-20 mg/kg, time 3 day
Enterococcus faecalis = experiment: Antimicrobial activity against Enterococcus faecalis 29212 assessed as increase in absorbance incubated for 20 to 22 hrs; format: functional; conditions: time 20-22 hrs
Escherichia coli [24] = experiment: Antibacterial activity against Escherichia coli ATCC 25922 injected intraperitoneally in ICR mouse assessed as reduction bacterial load in liver at 10 mg/kg, ip measured after 12 hrs by H and E staining based assay; format: functional, organism-based
Escherichia coli [25] = experiment: Antibacterial activity against Escherichia coli ATCC 25922 injected intraperitoneally in ICR mouse assessed as reduction in symptoms by measuring thickened respiratory membrane in lung at 10 mg/kg, ip measured after 12 hrs by H and E staining based assay; format: functional, organism-based
Staphylococcus aureus [26] = experiment: Antimicrobial activity against Staphylococcus aureus 11011 assessed as increase in absorbance incubated for 20 to 22 hrs; format: functional; conditions: time 20-22 hrs
Escherichia coli [27] = experiment: Antimicrobial activity against Escherichia coli ATCC 25922 assessed as increase in absorbance at 8 mg/ml incubated for 8 hrs in presence of chymotrypsin; format: functional, organism-based
Mus musculus [28] = experiment: Anti-inflammatory activity against Escherichia coli ATCC 25922-induced peritonitis ICR mouse model assessed as decrease in IL-6 level in serum spleen at 10 mg/kg, ip measured after 12 hrs; format: functional, organism-based
Acinetobacter baumannii = experiment: Antimicrobial activity against Acinetobacter baumannii AB1901 assessed as increase in absorbance incubated for 20 to 22 hrs; format: functional; conditions: time 20-22 hrs
Escherichia coli [29] = experiment: Antibacterial activity against Escherichia coli ATCC 25922 injected intraperitoneally in ICR mouse assessed as reduction bacterial load in lung at 10 mg/kg, ip measured after 12 hrs by H and E staining based assay; format: functional, organism-based
Escherichia coli [30] = experiment: Antimicrobial activity against Escherichia coli ATCC 25922 assessed as increase in absorbance incubated for 4 hrs in presence of 12.5% serum; format: functional, organism-based

Q: For CCCCCCCCCC(=O)NCCCC[C@H](N)C(=O)NCC(=O)NCC(=O)NCC(=O)N[C@H](CCCNC(=N)N)C(=O)N[C@@H](CCCNC(=N)N)C(=O)N[C@@H](CCCNC(=N)N)C(=O)N1CCC[C@H]1C(=O)N[C@@H](CSSC[C@H](NC(=O)[C@@H]1CCCN1C(=O)[C@H](CCCNC(=N)N)NC(=O)[C@H](CCCNC(=N)N)NC(=O)[C@@H](CCCNC(=N)N)NC(=O)CNC(=O)CNC(=O)CNC(=O)[C@@H](N)CCCCNC(=O)CCCCCCCCC)C(=O)O)C(=O)O, which MIC (Escherichia coli [1]) is on record?
A: The MIC was 4 µM (≈ 9.12 µg/mL).

Q: What about the Activity [2] of the same compound?
A: Its Activity is “Non-toxic”.

Q: What about the MIC (Salmonella typhimurium) of the same compound?
A: The MIC was 4 µM (≈ 9.12 µg/mL).

Q: What about the inhibition (Escherichia coli [3]) of the same compound?
A: Its inhibition is “Active”.

Q: And the MIC (Staphylococcus aureus [4])?
A: The MIC was 4 µM (≈ 9.12 µg/mL).

Q: What about the Activity (Escherichia coli [5]) of the same compound?
A: The Activity was “Active”.

Q: And the Activity (Escherichia coli [6])?
A: The Activity was “Active”.

Q: And the Activity (Escherichia coli [7])?
A: The Activity was “Active; Negligible Alteration In Mic Values Found”.

Q: And the Activity (Escherichia coli [8])?
A: Its Activity is “Active”.

Q: What about the Activity (Escherichia coli [9]) of the same compound?
A: The Activity was “inactive”.

Q: What about the Activity (Cell membrane [10]) of the same compound?
A: Its Activity is “Dose-dependent-effect”.

Q: What about the Activity (Escherichia coli [11]) of the same compound?
A: The Activity was “Active”.

Q: And the Stability [12]?
A: The Stability was “Stable”.

Q: What about the Activity (Mus musculus [13]) of the same compound?
A: Its Activity is “Active”.

Q: What about the MIC (Pseudomonas aeruginosa [14]) of the same compound?
A: The MIC was 4 µM (≈ 9.12 µg/mL).

Q: And the IC10 (HEK-293T)?
A: The IC10 was 256 µM.

Q: And the Activity (Cell membrane [15])?
A: The Activity was “Time-dependent-effect”.

Q: What about the Stability (Chymotrypsin) of the same compound?
A: Its Stability is “Stable”.

Q: What about the MIC (Pseudomonas aeruginosa [16]) of the same compound?
A: Its MIC is 4 µM (≈ 9.12 µg/mL).

Q: What about the Activity [17] of the same compound?
A: Its Activity is “Non-toxic”.

Q: What about the Activity (Escherichia coli [18]) of the same compound?
A: The Activity was “inactive”.

Q: And the MIC (Staphylococcus aureus [19])?
A: Its MIC is 8 µM (≈ 18.2 µg/mL).

Q: And the Activity [20]?
A: The Activity was “Toxic”.

Q: What about the Activity (Escherichia coli [21]) of the same compound?
A: Its Activity is “Active”.

Q: And the IC10 (RAW264.7)?
A: Its IC10 is 256 µM.

Q: And the Activity (Cell membrane [22])?
A: The Activity was “Active”.

Q: What about the Activity (Lipopolysaccharide (LPS)) of the same compound?
A: Its Activity is “Dose-dependent-effect”.

Q: What about the Activity [23] of the same compound?
A: Its Activity is “Non-toxic”.

Q: And the MIC (Enterococcus faecalis)?
A: The MIC was 4 µM (≈ 9.12 µg/mL).

Q: And the Activity (Escherichia coli [24])?
A: Its Activity is “Active”.

Q: And the Activity (Escherichia coli [25])?
A: Its Activity is “Active”.

Q: And the MIC (Staphylococcus aureus [26])?
A: Its MIC is 8 µM (≈ 18.2 µg/mL).

Q: And the Activity (Escherichia coli [27])?
A: The Activity was “Active; Negligible Alteration In Mic Values Found”.

Q: What about the Activity (Mus musculus [28]) of the same compound?
A: Its Activity is “Active”.

Q: And the MIC (Acinetobacter baumannii)?
A: The MIC was 4 µM (≈ 9.12 µg/mL).

Q: What about the Activity (Escherichia coli [29]) of the same compound?
A: Its Activity is “Active”.

Q: And the Activity (Escherichia coli [30])?
A: Its Activity is “Active”.
